According to patent publication US8481459B2, “Chemical inhibitors of ethylene biosynthesis” (Academia Sinica, priority 2010, dated 2013):

System: gene expression in etiolated eto1-4 seedlings
Assay: Transcriptional profiling (ATH1 GeneChip microarray) of etiolated eto1-4 seedlings
Format: in vivo, Arabidopsis thaliana
Conditions: ratio eto1-4 treated to eto1-4 (no treatment)
Description: For chemical treatments, seeds were sown on 0.5×MS agar medium supplemented with 10 μM chemicals (AVG, compounds 9393, 9370, and 7303) or DMSO (as control). Arabidopsis seeds were stratified in the dark at 4° C. for 4 days, then germinated in the dark for 3 days at 22° C. Approximately 2,000 etiolated seedlings of the wild type or eto1-4 were used to collect tissues for preparation of total RNA in each microarray experiment with Arabidopsis ATH1 GeneChip (Affymetrix). Extraction of RNA followed an established protocol (Chang, et al. (1993) Plant Mol. Biol. Rep. 11, 113-117). Total RNA (10 μg) was used to prepare biotinylated cRNA for hybridization to ATH1 GeneChip in the experiments disclosed herein. Experiments were repeated by 2 independent biological duplicates, and candidate genes present in both experiments were selected for further analysis. The MASS method was used for data analysis and normalization by all sample medium. Candidate genes were selected by the following criteria. First, genes with 1.5-fold differential expression between the wild type and eto1-4 were selected as the master gene pool, which was then used for comparison in treatments with AVG and individual exemplary compounds. Data were presented in hierarchical clustering and Venn diagram format. Agilent GeneSpring GX and Bioconductor software were used to analyze the expression profile data. Gene Ontology descriptions were generated by GeneSpring GX and further referred to the TAR GO database. Raw data are available in the GEO database (http://www.ncbi.nlm.nih.gov/geo) with Accession no. GSE20897.
The filtered and normalized expression data set from 22810 probes on the ATH1 Genechip was used for hierarchical clustering of gene expression profiles for comparison between AVG and the exemplary invention compounds in eto1-4. It was identified that 1,446 genes show at least 1.5-fold difference in expression between the WT and eto1-4 and used them as the master gene pool for clustering analysis (FIG. 7A). […] These genes likely contribute to the etiolated phenotype of eto1-4 by responding to elevated endogenous ethylene. To determine whether the exemplary compounds have specific r overlapping functions with AVG to suppress the eto1-4 phenotype, genes that are regulated by individual exemplary invention compounds and AVG for Venn diagram analysis were clustered (FIG. 7B). More than 63% of genes (356/561 for compound 9393; 389/561 for compound 9370; 399/561 for compound 7303; FIG. 7B) with expression associated with AVG were co-regulated by the exemplary invention compounds, which indicates an overlap function in suppression of the ethylene phenotype in eto1-4. […] Next genes co-regulated by all of the exemplary invention compounds and AVG were examined by performing a clustering analysis using the co-regulated genes identified in FIG. 7B: 356 (compound 9393 vs AVG), 389 (compound 9370 vs AVG) and 399 genes (compound 7303 vs AVG). It was uncovered that 276 genes were co-regulated by all of the exemplary invention compounds and AVG (FIG. 7C and Table 2). On the basis of GO descriptions generated by Gene Spring GX and TAIR database, the 276 genes were divided into subgroups related to their biological functions (Table 2). […] In addition, stress- and pathogenesis-related genes were among the co-regulated genes, possibly because ethylene is involved in both biotic and abiotic stresses.
Genes (1446 non-redundant loci) were selected by 1.5-fold differential expression between eto1-4 and WT as the master pool for analysis. These genes were used for comparison between chemical treatments by AVG and the exemplary invention compounds. The finalized 276 genes that are co-regulated by AVG and all of the exemplary invention compounds are shown. Locus ID also present in Nemhauser et al. (Nemhauser, et al. (2006) Cell 126, 467-475).

CC1(C)CC(=O)c2cnc(NC3CCCC3)nc2C1 [Compound 9393]
Signal Fold Change AT3G14850, unknown biological function: 0.29 | Signal Fold Change AT3G15890 protein kinase: 1.98 | Signal Fold Change AT3G16450 jacalin lectin protein: 2.09 | Signal Fold Change AT3G16470 jacalin lectin protein: 4.09 | Signal Fold Change AT3G16690, unknown biological function: 3.33 | Signal Fold Change AT3G17680, unknown biological function: 0.33 | Signal Fold Change AT3G20130 cytochrome P450: 1.72 | Signal Fold Change AT3G21770 peroxidase 30: 1.57 | Signal Fold Change AT3G22620 lipid transfer protein: 1.94 | Signal Fold Change AT3G23150 ethylene receptor, putative (ETR2): 0.15 | Signal Fold Change AT3G23800, unknown biological function: 0.46 | Signal Fold Change AT3G24670, unknown biological function: 0.32 | Signal Fold Change AT3G25710 bHLH protein: 2.27 | Signal Fold Change AT3G25730 AP2-containing transcription factor: 0.26 | Signal Fold Change AT3G25980 mitotic spindle checkpoint protein: 2.35 | Signal Fold Change AT3G27580 protein kinase: 0.48 | Signal Fold Change AT3G28290, unknown biological function: 0.29 | Signal Fold Change AT3G29250 short-chain dehydrogenase: 4.05 | Signal Fold Change AT3G30775 proline oxidase, mitochondrial: 2.13 | Signal Fold Change AT3G43270 pectinesterase protein: 0.26 | Signal Fold Change AT3G44820, response to light stimulus, phototropic-responsive NPH3 protein: 2.81 | Signal Fold Change AT3G44990 endo-xyloglucan transferase: 0.28 | Signal Fold Change AT3G45710 proton-dependent oligopeptide transport (POT) protein: 1.98 | Signal Fold Change AT3G46130 myb transcription factor (MYB48): 2.63 | Signal Fold Change AT3G46700 UDP-glucosyl transferase: 3.09 | Signal Fold Change AT3G47210, unknown biological function: 2.53 | Signal Fold Change AT3G47250, unknown biological function: 3.68 | Signal Fold Change AT3G49780 phytosulfokines 3 (PSK3): 4.97 | Signal Fold Change AT3G50660 steroid 22-alpha-hydroxylase: 4.32 | Signal Fold Change AT3G51410, unknown biological function: 0.32 | Signal Fold Change AT3G51970, unknown biological function: 2.49 | Signal Fold Change AT3G52180 protein tyrosine phosphatase: 0.32 | Signal Fold Change AT3G52920 expressed protein (defense response): 3.09 | Signal Fold Change AT3G53540, unknown biological function: 0.38 | Signal Fold Change AT3G56480, unknown biological function: 2.21 | Signal Fold Change AT3G58710 WRKY transcription factor: 2.14 | Signal Fold Change AT3G59370, unknown biological function: 2.91 | Signal Fold Change AT3G59710 short-chain dehydrogenase: 0.39 | Signal Fold Change AT3G59900, unknown biological function: 0.43 | Signal Fold Change AT3G60520, unknown biological function: 0.27 | Signal Fold Change AT3G61160 shaggy-related protein kinase beta/ASK-beta (ASK2): 3.26 | Signal Fold Change AT4G00730 anthocyaninless2: 0.55 | Signal Fold Change AT4G01410, unknown biological function: 0.40 | Signal Fold Change AT4G03140 short-chain dehydrogenase: 0.41 | Signal Fold Change AT4G08300, unknown biological function: 3.06 | Signal Fold Change AT4G09570 calcium-dependent protein kinase: 0.36 | Signal Fold Change AT4G10910, unknown biological function: 4.86 | Signal Fold Change AT4G11190 disease resistance-responsive protein: 5.56 | Signal Fold Change AT4G11280 ACC synthase 6: 1.87 | Signal Fold Change AT4G11310 cysteine proteinase: 8.01 | Signal Fold Change AT4G12080, unknown biological function: 1.88 | Signal Fold Change AT4G12410 auxin-responsive protein: 2.76 | Signal Fold Change AT4G12480 lipid transfer protein: 0.20 | Signal Fold Change AT4G13210, unknown biological function: 0.29 | Signal Fold Change AT4G15550 UDP-glucose:indole-3-acetate beta-D-glucosyltransferase: 0.36 | Signal Fold Change AT4G15920, unknown biological function: 13.52 | Signal Fold Change AT4G17220 expressed protein (cytoskeleton organization and biogenesis): 2.49 | Signal Fold Change AT4G18340 glycosyl hydrolase: 2.57 | Signal Fold Change AT4G23410 senescence-associated protein: 1.97 | Signal Fold Change AT4G25780, unknown biological function: 9.02 | Signal Fold Change AT4G26010 peroxidase: 0.45 | Signal Fold Change AT4G28085, unknown biological function: 2.86 | Signal Fold Change AT4G31000, unknown biological function: 0.55 | Signal Fold Change AT4G32920, unknown biological function: 2.39 | Signal Fold Change AT4G34560, unknown biological function: 2.00 | Signal Fold Change AT4G34760 auxin-responsive protein: 0.20 | Signal Fold Change AT4G35060 copper chaperone: 3.14 | Signal Fold Change AT4G35150, unknown biological function: 0.32 | Signal Fold Change AT4G36520, unknown biological function: 2.71 | Signal Fold Change AT4G37220 stress-responsive protein: 7.29 | Signal Fold Change AT4G38690, signal transduction, 1-phosphatidylinositol: 2.55 | Signal Fold Change AT4G39210 ADP-glucose pyrophosphorylase: 0.44 | Signal Fold Change AT4G39800 inositol-3-phosphate synthase isozyme 1: 2.16 | Signal Fold Change AT4G39840, unknown biological function: 0.37 | Signal Fold Change AT5G01210, unknown biological function: 0.33 | Signal Fold Change AT5G01300, unknown biological function: 1.40 | Signal Fold Change AT5G02260, cell wall organization and biogenesis, expansin (EXP9): 0.16 | Signal Fold Change AT5G02540 short-chain dehydrogenase: 0.17 | Signal Fold Change AT5G03160 DNAJ heat shock N-terminal domain-containing protein: 1.90 | Signal Fold Change AT5G04080, unknown biological function: 2.48 | Signal Fold Change AT5G05180, unknown biological function: 1.79 | Signal Fold Change AT5G06200, unknown biological function: 1.94 | Signal Fold Change AT5G08240, unknown biological function: 1.79 | Signal Fold Change AT5G08260 serine carboxypeptidase S10 protein: 0.50 | Signal Fold Change AT5G08370 alpha-galactosidase: 2.77 | Signal Fold Change AT5G09980 expressed protein (defense response): 0.35 | Signal Fold Change AT5G10720 sensory transduction histidine kinase: 0.48 | Signal Fold Change AT5G11540, unknown biological function: 5.32 | Signal Fold Change AT5G12170, response to cadmium ion, expressed protein: 0.36 | Signal Fold Change AT5G13870 endo-xyloglucan transferase: 0.27 | Signal Fold Change AT5G13910 AP2/EREBP-like transcription factor: 0.46 | Signal Fold Change AT5G14780 formate dehydrogenase: 0.44 | Signal Fold Change AT5G14920 gibberellin-regulated protein: 0.35 | Signal Fold Change AT5G15290, unknown biological function: 2.43 | Signal Fold Change AT5G15530 biotin carboxyl carrier protein 2: 0.54 | Signal Fold Change AT5G15830 bZIP transcription factor protein: 3.94 | Signal Fold Change AT5G18470, unknown biological function: 0.13 | Signal Fold Change AT5G18670 beta-amylase: 0.50 | Signal Fold Change AT5G18860, unknown biological function: 2.02 | Signal Fold Change AT5G18970, unknown biological function: 2.49 | Signal Fold Change AT5G19890 peroxidase: 0.13 | Signal Fold Change AT5G19930, unknown biological function: 1.64 | Signal Fold Change AT5G20410 monogalactosyldiacylglycerol synthase: 2.77 | Signal Fold Change AT5G22310, unknown biological function: 0.37 | Signal Fold Change AT5G22860 serine carboxypeptidase S28 protein: 2.63 | Signal Fold Change AT5G23750, unknown biological function: 3.60 | Signal Fold Change AT5G24870, unknown biological function: 2.16 | Signal Fold Change AT5G25140 cytochrome P450: 4.21 | Signal Fold Change AT5G25160 zinc finger (C2H2 type) protein: 2.60 | Signal Fold Change AT5G25190 ethylene-responsive element-binding protein: 0.32 | Signal Fold Change AT5G34940, unknown biological function: 0.49 | Signal Fold Change AT5G37300, unknown biological function: 3.86 | Signal Fold Change AT5G38930, unknown biological function: 0.33 | Signal Fold Change AT5G39860 bHLH protein: 2.39 | Signal Fold Change AT5G41900 hydrolase: 2.67 | Signal Fold Change AT5G44410, unknown biological function: 3.37 | Signal Fold Change AT5G44580, unknown biological function: 0.22 | Signal Fold Change AT5G46890 lipid transfer protein: 3.64 | Signal Fold Change AT5G47240, unknown biological function: 3.96 | Signal Fold Change AT5G47330 palmitoyl protein thioesterase protein: 2.52 | Signal Fold Change AT5G47450 major intrinsic protein: 2.24 | Signal Fold Change AT5G47950, unknown biological function: 1.93 | Signal Fold Change AT5G48490 lipid transfer protein: 9.12 | Signal Fold Change AT5G48900, unknown biological function: 0.55 | Signal Fold Change AT5G49900, unknown biological function: 2.24 | Signal Fold Change AT5G50720 ABA-responsive protein (HVA22e): 2.52 | Signal Fold Change AT5G52120 SKP1 interacting partner 3 protein: 5.39 | Signal Fold Change AT5G53190, unknown biological function: 4.35 | Signal Fold Change AT5G53830, unknown biological function: 0.40 | Signal Fold Change AT5G56320, cell wall organization and biogenesis, expansin (EXP14): 3.15 | Signal Fold Change AT5G58660, unknown biological function: 0.34 | Signal Fold Change AT5G59540 oxidoreductase: 0.44 | Signal Fold Change AT5G63450 cytochrome P450: 6.43 | Signal Fold Change AT5G63650 serine/threonine protein kinase: 0.42 | Signal Fold Change AT5G65970 seven transmembrane MLO protein: 2.60 | Signal Fold Change AT5G66310, microtubule-based movement, kinesin motor protein: 0.48 | Signal Fold Change AT5G66400 dehydrin (RAB18): 1.09 | Signal Fold Change AT5G66440, unknown biological function: 0.30 | Signal Fold Change AT5G66460 (1-4)-beta-mannan endohydrolase: 0.51 | Signal Fold Change AT5G66780, unknown biological function: 0.78
